US7531482B2, “Thieno-pyrimidine compounds having fungicidal activity” (Dow AgroSciences LLC, priority 2005, dated 2009)

Legend:
Type in all cases: in vivo
[1] = system: Colletotricum lagenarium; experiment: Cucumber Anthracnose (COLLLA) whole-plant disease control test; conditions: Cucumis sativus, foliar; 200 ppm applied to foliage of cucumber; inoculated one day after treatment; read-out: COLLLA disease control
[2] = system: Magnaporthe grisea=Pyricularia oryzae; experiment: whole plant or invertebrate; conditions: Pyricularia oryzae, foliar; for pest or weed control at 200 ppm: read-out: PYRIOR disease control, 200 ppm applied to foliage of rice, inoculated one day after treatment; for pest or weed control at 8.3 ppm: read-out: PYRIOR disease control, 8.3 ppm (footnote c), rice foliage
[3] = system: Mycosphaerella graminicola=Septoria tritici; experiment: Speckled Leaf Blotch of Wheat (SEPTTR) whole-plant disease control test; conditions: Mycosphaerella, foliar, 75 ppm applied to foliage of wheat; read-out: SEPTTR disease control
[4] = system: Leptosphaeria nodorum; experiment: Glume Blotch of Wheat (LEPTNO) whole-plant disease control test; conditions: Parastagonospora nodorum, foliar; for pest or weed control at 200 ppm: 200 ppm applied to foliage of wheat, inoculated one day after treatment, read-out: LEPTNO disease control; for pest or weed control at 75 ppm: 75 ppm (footnote b), wheat foliage
[5] = system: Puccinia recondita tritici; experiment: Leaf Rust of Wheat (PUCCRT) whole-plant disease control test; conditions: Puccinia recondita, foliar; for pest or weed control at 200 ppm: 200 ppm applied to foliage of wheat, inoculated one day after treatment, read-out: PUCCRT disease control; for pest or weed control at 8.3 ppm: 8.3 ppm (footnote c), wheat foliage
[6] = system: Phytophthora infestans; experiment: whole plant or invertebrate; conditions: Phytophthora infestans, in Solanum lycopersicum, foliar, read-out: PHYTIN disease control, 200 ppm applied to foliage of tomato; inoculated one day after treatment
[7] = system: Erysiphe cichoracaerum; experiment: Cucumber Powdery Mildew (ERYSCI) whole-plant disease control test; conditions: Erysiphe, foliar; 200 ppm applied to foliage of cucumber; inoculated one day after treatment; read-out: ERYSCI disease control

Row | SMILES | pest or weed control at 200 ppm [1] [%] | pest or weed control at 200 ppm [2] [%] | pest or weed control at 75 ppm [3] [%] | pest or weed control at 200 ppm [4] [%] | pest or weed control at 200 ppm [5] [%] | pest or weed control at 200 ppm [6] [%] | pest or weed control at 200 ppm [7] [%] | pest or weed control at 8.3 ppm [2] [%] | pest or weed control at 75 ppm [4] [%] | pest or weed control at 8.3 ppm [5] [%]
1 | CS(=O)(=O)c1cccc(Oc2ccc(CCNc3ncnc4scc(Cl)c34)cc2)n1 [Compound 91] | 0 to 49 | 80 to 100 | 0 to 49 | 80 to 100 | 80 to 100 | 80 to 100 | 50 to 79 | – | – | –
2 | c1csc(Oc2ccc(CCNc3ncnc4sccc34)cc2)n1 [Compound 49] | 50 to 79 | 80 to 100 | 50 to 79 | 50 to 79 | 80 to 100 | 80 to 100 | 80 to 100 | – | – | –
3 | NC(=O)c1ccc(Oc2ccc(CCNc3ncnc4scc(Cl)c34)cc2)nc1 [Compound 21] | 0 to 49 | 0 to 49 | 0 to 49 | 0 to 49 | 80 to 100 | 0 to 49 | 0 to 49 | – | – | –
4 | N#Cc1ccc(Oc2ccc(CCNc3ncnc4scc(Cl)c34)cc2)nc1 [Compound 4] | 80 to 100 | 80 to 100 | 50 to 79 | 80 to 100 | 80 to 100 | 80 to 100 | 80 to 100 | – | – | –
5 | N#Cc1ccnc(Oc2ccc(CCNc3ncnc4sccc34)cc2)c1 [Compound 53] | 80 to 100 | 80 to 100 | 50 to 79 | 50 to 79 | 80 to 100 | 80 to 100 | 50 to 79 | – | – | –
6 | COc1cc(CCNc2ncnc3scc(Cl)c23)ccc1Oc1cc(C(F)(F)F)ccn1 [Compound 124, (5-Chlorothieno[2,3-d]pyrimidin-4-yl)-{2-[3-methoxy-4-(4-trifluoromethylpyridin-2-yloxy)phenyl]ethyl}amine] | 50 to 79 | – | 0 to 49 | – | 80 to 100 | 50 to 79 | 80 to 100 | 80 to 100 | 0 to 49 | –
7 | FC(F)(F)c1cnccc1Oc1ccc(CCNc2ncnc3scc(Cl)c23)cc1 [Compound 126] | – | – | 80 to 100 | – | – | – | – | – | 50 to 79 | 80 to 100
8 | COC(=O)c1ccc(Oc2ccc(CCNc3ncnc4scc(Cl)c34)cc2)nc1 [Compound 20] | 0 to 49 | 0 to 49 | – | 0 to 49 | 80 to 100 | 0 to 49 | 0 to 49 | – | – | –
9 | Clc1csc2ncnc(NCCc3ccc(Oc4snnc4-c4ccccc4)cc3)c12 [Compound 115] | – | – | 50 to 79 | – | – | – | – | 50 to 79 | 50 to 79 | 80 to 100
10 | CC(C)(C)c1nnc(Oc2ccc(CCNc3ncnc4scc(Cl)c34)cc2)s1 [Compound 109] | – | – | 50 to 79 | – | – | – | – | 80 to 100 | 50 to 79 | 80 to 100
11 | N#Cc1ccc(C(F)(F)F)nc1Oc1ccc(CCNc2ncnc3scc(Cl)c23)cc1 [Compound 133] | – | – | – | – | – | – | – | – | – | 0 to 49
12 | Fc1ccc(F)c(Oc2ccc(CCNc3ncnc4scc(Cl)c34)cc2)n1 [Compound 132] | – | – | – | – | – | – | – | 80 to 100 | – | 80 to 100
13 | Fc1cnc(C(F)(F)F)c(F)c1Oc1cccc(CCNc2ncnc3scc(Cl)c23)c1 [Compound 131] | – | – | – | – | – | – | – | – | – | 50 to 79
14 | CC(C)(C)C(=O)NNc1cccc(Oc2ccc(CCNc3ncnc4scc(Cl)c34)cc2)n1 [Compound 102, 2,2-Dimethylpropionic acid N′-(6-{4-[2-(5-chlorothieno[2,3-d]pyrimidin-4-ylamino)ethyl]phenoxy}pyridine-2-yl)-hydrazide] | – | – | 0 to 49 | – | – | – | – | 50 to 79 | 0 to 49 | 0 to 49
15 | N#Cc1c(Cl)cncc1Oc1cccc(CCNc2ncnc3scc(Cl)c23)c1 [Compound 130] | 0 to 49 | 80 to 100 | 0 to 49 | – | 80 to 100 | 80 to 100 | 0 to 49 | – | – | –
16 | CS(=O)(=O)c1ccc(Oc2ccc(CCNc3ncnc4scc(Cl)c34)cc2)nc1 [Compound 2] | 0 to 49 | 50 to 79 | – | 0 to 49 | 80 to 100 | 0 to 49 | 0 to 49 | – | – | –
17 | Fc1cc(F)c(Oc2ccc(CCNc3ncnc4scc(Cl)c34)cc2)nc1F [Compound 129] | – | 80 to 100 | 80 to 100 | – | 80 to 100 | – | – | – | 50 to 79 | –
